Source: publication PMC2248166, “Quantitative peptide binding motifs for 19 human and mouse MHC class I molecules derived using positional scanning combinatorial peptide libraries” (Immunome Research, 2008)
Where a SMILES comes first, the peptide text is derived from it.

The compounds below were run against HLA B*1501 (Homo sapiens, UniProt P01889, A329T/A93T/A95T/C349S/D201E/D98Y/E187L/E204Q/E69M/E70A/K202T/N87E/Q94N/R155S/R180W/S121R/S35A/S48A/V306I/V36M/Y140S/Y91S) (assay: biochemical).
Assay type: binding
For CC[C@H](C)[C@H](N)C(=O)N[C@@H](CO)C(=O)N[C@H](C(=O)N[C@@H](CCCCN)C(=O)N[C@@H](CC(C)C)C(=O)N[C@@H](CO)C(=O)N[C@@H](CS)C(=O)N[C@@H](Cc1c[nH]cn1)C(=O)N[C@@H](Cc1ccc(O)cc1)C(=O)O)[C@@H](C)O [3102.0872] (H-ISTKLSCHY-OH), the IC50 was 0.018 µM. CC[C@H](C)[C@H](NC(=O)[C@H](CCSC)NC(=O)[C@@H](N)CO)C(=O)N[C@@H](CC(N)=O)C(=O)N[C@@H](Cc1ccc(O)cc1)C(=O)N[C@@H](Cc1ccc(O)cc1)C(=O)N[C@@H](CC(N)=O)C(=O)N[C@@H](CCC(=O)O)C(=O)N[C@@H](CCSC)C(=O)O [3102.0985] (H-SMINYYNEM-OH) showed an IC50 of 0.0023 µM. With CC[C@H](C)[C@H](NC(=O)[C@H](C)NC(=O)[C@H](CC(C)C)NC(=O)[C@@H](N)CC(C)C)C(=O)N[C@@H](CO)C(=O)N[C@@H](C)C(=O)N[C@H](C(=O)N[C@@H](Cc1ccc(O)cc1)C(=O)N[C@@H](Cc1ccccc1)C(=O)O)C(C)C [3102.0875] (H-LLAISAVYF-OH) the IC50 was 0.032 µM. In the case of CSCC[C@H](NC(=O)[C@H](CCC(=O)O)NC(=O)[C@H](C)NC(=O)[C@H](CC(N)=O)NC(=O)[C@H](CCC(=O)O)NC(=O)[C@H](CCCCN)NC(=O)[C@H](CC(N)=O)NC(=O)[C@H](CCSC)NC(=O)[C@@H](N)CC(C)C)C(=O)O [3102.0802] (H-LMNKENAEM-OH), the IC50 is reported as 0.0077 µM. CC(C)C[C@H](NC(=O)[C@@H](NC(=O)[C@H](CCCCN)NC(=O)[C@H](CCCCN)NC(=O)[C@H](C)NC(=O)[C@@H](N)CC(C)C)[C@@H](C)O)C(=O)N[C@@H](C)C(=O)N1CCC[C@H]1C(=O)N[C@@H](Cc1ccccc1)C(=O)O [3102.0825] (H-LAKKTLAPF-OH) was tested, and the IC50 was 0.0021 µM. CC[C@H](C)[C@H](NC(=O)CNC(=O)[C@@H](N)CO)C(=O)NCC(=O)N[C@H](C(=O)N[C@@H](Cc1ccccc1)C(=O)N[C@@H](CC(C)C)C(=O)N[C@@H](Cc1c[nH]cn1)C(=O)N[C@@H](Cc1ccc(O)cc1)C(=O)O)[C@@H](C)O [3102.0852] (H-SGIGTFLHY-OH) showed an IC50 of 0.023 µM. Compound CC[C@H](C)[C@H](NC(=O)[C@@H](N)Cc1ccccc1)C(=O)N[C@@H](CC(N)=O)C(=O)N[C@@H](CO)C(=O)N[C@H](C(=O)N[C@@H](CS)C(=O)N[C@@H](Cc1ccc(O)cc1)C(=O)N[C@H](C(=O)N[C@@H](Cc1ccccc1)C(=O)O)C(C)C)[C@@H](C)O [3102.0986] (H-FINSTCYVF-OH) has an IC50 of 0.0043 µM. CSCC[C@H](NC(=O)[C@H](CO)NC(=O)[C@@H](NC(=O)[C@H](CC(C)C)NC(=O)[C@H](CCCCN)NC(=O)[C@H](CO)NC(=O)[C@@H](N)Cc1ccc(O)cc1)[C@@H](C)O)C(=O)N[C@@H](Cc1c[nH]cn1)C(=O)N[C@@H](Cc1ccccc1)C(=O)O [3102.0944] (H-YSKLTSMHF-OH) showed an IC50 of 0.00057 µM. CSCC[C@H](NC(=O)[C@H](C)NC(=O)[C@@H]1CCCN1C(=O)[C@@H](NC(=O)[C@H](Cc1ccc(O)cc1)NC(=O)[C@H](C)NC(=O)[C@H](CCCCN)NC(=O)[C@H](CCC(N)=O)NC(=O)[C@@H](N)CCC(=O)O)C(C)C)C(=O)O [3102.1038] (H-EQKAYVPAM-OH) gave an IC50 of 0.00077 µM. CC(C)C[C@H](NC(=O)[C@H](CC(C)C)NC(=O)[C@@H](N)Cc1ccccc1)C(=O)N[C@@H](CO)C(=O)N[C@@H](CC(C)C)C(=O)N[C@H](C(=O)N[C@@H](CCC(=O)O)C(=O)N[C@@H](Cc1ccccc1)C(=O)N[C@@H](Cc1ccccc1)C(=O)O)C(C)C [3102.1008] (H-FLLSLVEFF-OH) was tested, and the IC50 was 0.00082 µM. Compound CC[C@H](C)[C@H](NC(=O)[C@H](CO)NC(=O)[C@H](CC(C)C)NC(=O)[C@H](CC(C)C)NC(=O)[C@@H](N)CC(C)C)C(=O)N[C@@H](CC(N)=O)C(=O)N[C@@H](CO)C(=O)N[C@@H](CO)C(=O)N[C@@H](Cc1ccccc1)C(=O)O [3102.1035] (H-LLLSINSSF-OH) has an IC50 of 0.00088 µM. For CC[C@H](C)[C@H](NC(=O)[C@H](CO)NC(=O)[C@@H](NC(=O)[C@H](CS)NC(=O)[C@@H](NC(=O)[C@H](CO)NC(=O)[C@H](CCCNC(=N)N)NC(=O)[C@H](CCSC)NC(=O)[C@@H](N)CC(C)C)[C@@H](C)CC)C(C)C)C(=O)O [3102.0838] (H-LMRSICVSI-OH), the IC50 was 0.063 µM. With CC[C@H](C)[C@H](N)C(=O)N[C@H](C(=O)N[C@@H](CO)C(=O)N[C@@H](CO)C(=O)N[C@@H](CO)C(=O)N[C@H](C(=O)N[C@@H](CC(C)C)C(=O)N[C@@H](Cc1ccc(O)cc1)C(=O)N[C@@H](Cc1ccccc1)C(=O)O)[C@@H](C)O)[C@@H](C)CC [3102.1018] (H-IISSSTLYF-OH) the IC50 was 0.0011 µM. CSCC[C@H](NC(=O)[C@H](Cc1c[nH]cn1)NC(=O)[C@H](CCC(=O)O)NC(=O)[C@H](Cc1ccccc1)NC(=O)[C@H](Cc1ccc(O)cc1)NC(=O)CNC(=O)[C@H](CCCNC(=N)N)NC(=O)[C@H](CO)NC(=O)[C@@H](N)CCSC)C(=O)O [3102.0982] (H-MSRGYFEHM-OH) showed an IC50 of 0.031 µM. Work on CC[C@H](C)[C@H](NC(=O)[C@@H](N)CO)C(=O)N[C@@H](CS)C(=O)N[C@@H](CO)C(=O)N[C@@H](CCCCN)C(=O)N[C@@H](CO)C(=O)N[C@@H](CC(N)=O)C(=O)N1CCC[C@H]1C(=O)N[C@@H](Cc1ccccc1)C(=O)O [3102.0855] (H-SICSKSNPF-OH) yielded an IC50 of 0.039 µM. In the case of CC[C@H](C)[C@H](NC(=O)[C@@H](NC(=O)CN)[C@@H](C)O)C(=O)N[C@@H](CCSC)C(=O)N[C@H](C(=O)N[C@@H](CO)C(=O)N[C@@H](CCC(=O)O)C(=O)N[C@@H](Cc1c[nH]cn1)C(=O)N[C@@H](Cc1ccccc1)C(=O)O)C(C)C [3102.1012] (H-GTIMVSEHF-OH), the IC50 is reported as 0.057 µM. CC(C)C[C@H](NC(=O)[C@H](CC(N)=O)NC(=O)[C@H](C)NC(=O)[C@H](CO)NC(=O)[C@@H](N)CC(C)C)C(=O)N[C@@H](Cc1ccccc1)C(=O)N[C@@H](CCC(=O)O)C(=O)N[C@@H](CO)C(=O)N[C@@H](CCC(N)=O)C(=O)O [3102.0959] (H-LSANLFESQ-OH) gave an IC50 of 0.045 µM. In the case of CSCC[C@H](NC(=O)[C@H](Cc1c[nH]cn1)NC(=O)[C@H](CS)NC(=O)[C@@H](NC(=O)[C@H](CC(N)=O)NC(=O)[C@H](CC(N)=O)NC(=O)[C@@H](NC(=O)[C@H](CO)NC(=O)[C@@H](N)C(C)C)C(C)C)C(C)C)C(=O)O [3102.0880] (H-VSVNNVCHM-OH), the IC50 is reported as 0.014 µM. CC(C)C[C@H](NC(=O)[C@H](CO)NC(=O)[C@H](CCCCN)NC(=O)[C@H](CC(C)C)NC(=O)[C@@H](N)CO)C(=O)N[C@@H](Cc1ccc(O)cc1)C(=O)N[C@@H](CCC(=O)O)C(=O)N[C@@H](C)C(=O)N[C@@H](Cc1ccccc1)C(=O)O [3102.0923] (H-SLKSLYEAF-OH) showed an IC50 of 0.02 µM. In the case of CC[C@H](C)[C@H](NC(=O)[C@@H](NC(=O)[C@H](Cc1ccccc1)NC(=O)[C@H](CCCCN)NC(=O)[C@H](CCC(N)=O)NC(=O)[C@@H](N)CCSC)[C@@H](C)O)C(=O)N[C@@H](CC(C)C)C(=O)N[C@@H](CCC(=O)O)C(=O)N[C@@H](Cc1ccc(O)cc1)C(=O)O [3102.0953] (H-MQKFTILEY-OH), the IC50 is reported as 0.01 µM. CC[C@H](C)[C@H](NC(=O)[C@@H](N)CCC(=O)O)C(=O)N[C@@H](Cc1ccccc1)C(=O)N[C@@H](CCCCN)C(=O)N[C@@H](Cc1c[nH]cn1)C(=O)N[C@@H](CC(C)C)C(=O)N[C@H](C(=O)N[C@@H](Cc1ccccc1)C(=O)N[C@@H](Cc1ccccc1)C(=O)O)C(C)C [3102.0972] (H-EIFKHLVFF-OH) gave an IC50 of 0.012 µM. CSCC[C@H](NC(=O)[C@H](CC(C)C)NC(=O)[C@H](Cc1ccc(O)cc1)NC(=O)[C@H](CCCCN)NC(=O)[C@H](CCSC)NC(=O)[C@@H](N)CO)C(=O)N[C@@H](CC(C)C)C(=O)N[C@@H](CC(C)C)C(=O)N[C@@H](Cc1ccccc1)C(=O)O [3102.0789] (H-SMKYLMLLF-OH) gave an IC50 of 0.0038 µM.
